Assay [1] concerns Staphylococcus epidermidis ATCC 12228. On the set-up: method as in earlier work. The settings on record: pure ligands, S. epidermidis ATCC 12228; previous study ref 29; cited from earlier work.
For assay [2], the system named is Staphylococcus aureus ATCC 25923. On the set-up: method as in earlier work. The settings on record: pure ligands, S. aureus ATCC 25923; previous study ref 29; cited from earlier work.
Assay [3] relates to Salmonella typhimurium ATCC 14028. On the set-up: method as in earlier work. The settings on record: pure ligands, S. typhimurium ATCC 14028; previous study ref 29; cited from earlier work.
In assay [4] the test system is Enterococcus faecalis ATCC 29212. Also noted: method as in earlier work. The note with it: pure ligands, E. faecalis ATCC 29212; previous study ref 29; cited from earlier work.
The test system of another assay is glioblastoma U87 cells. Kind of assay: MTT cell viability assay. The settings on record: Homo sapiens, U-87 MG, 48 hours of incubation. The class given is cell-based, human. The procedure:
(§1) The glioblastoma cell lines LN-229 and U87 and the reference human normal skin fibroblast BJ were obtained from the American Type Culture Collection (ATCC). Cells were grown as monolayers when cultured in cell culture flasks and cultured in Dulbecco's Modified Eagle Medium (DMEM) – LN-229 and Eagle's Minimum Essential Medium (EMEM) – U87 and BJ, supplemented with 10% (v/v) fetal bovine serum, penicillin (10 000 U mL^−1), streptomycin (10 mg mL^−1) and amphotericin B (250 μg mL^−1). The cells were incubated at 37 °C, 5% CO2 atmosphere. The cells were maintained in the logarithmic growth phase by regular passage at 80% confluence.
(§2) The cytotoxicity of the tested compounds was evaluated against both human glioblastoma LN-229 and U-87 as well as normal BJ cell lines. The cells were plated in 96-well culture plates (2 × 10^4 well) and after 24 h incubation the cells were treated with the tested compounds in the concentration range 1–50 μM. The cells were cultured for the next 48 h. The cytotoxicity of the compounds was evaluated using the MTT colorimetric method as previously described.[28,29] IC50 values were determined using the AAT Bioquest IC50 calculator as the concentration of compounds capable of reducing cell viability by 50%. The experiment was performed in triplicate for each concentration. To examine the cytotoxic effect of compounds on cell morphology, cells were examined under an inverted phase contrast microscope Nikon Eclipse Ti with NIS Element software (Tokyo, Japan).
(Formazan colour is commonly taken as a measure of viable cells.)

For assay [5], the system named is glioblastoma LN-229 cells. The experiment in a line: MTT cell viability assay. In kind it is cell-based, human. The note with it: Homo sapiens, 48 hours of incubation. The method, then:
as §1, §2

The test system of assay [6] is normal skin fibroblast BJ cells. Kind of assay: MTT cell viability assay. In kind it is cell-based, human. The settings on record: Homo sapiens; BJ normal fibroblasts; 48 hours of incubation. The procedure: as §1, §2

Regarding `N/C(=N\N=C\c1ccccc1)c1cncc(N2CCOCC2)n1` [Complex L5, (benzylidene)-6-morpholinopyrazine-2-carbohydrazonamide], the MIC in assay [1], in assay [2], in assay [3] and in assay [4] was above 500 µg/mL each time. Moreover, the IC50 (in the assay on glioblastoma U87 cells; in assay [5]; in assay [6]) was above 50 µM in each case.
For the compound `N/C(=N\N=C\c1ccc([N+](=O)[O-])cc1)c1cccc(N2CCCC2)n1` [Complex L4, (4-nitrobenzylidene)-6-(pyrrolidin-1-yl)picolinohydrazonamide], the MIC in assay [1], in assay [2], in assay [3] and in assay [4] was above 500 µg/mL throughout. In addition, the figures for the IC50 (in the assay with glioblastoma U87 cells; in assay [5]; in assay [6]) were above 50 µM, 48.1 ± 6.09 µM and above 50 µM, respectively.
For `NC(=NN=Cc1ccccc1)c1cncc(Cl)n1` [Complex L1, N′-(benzylidene)-6-chloropyrazine-2-carbohydrazonamide], the MIC was 500 µg/mL in assay [1], 500 µg/mL in assay [2], above 500 µg/mL in assay [3] and 250 µg/mL in assay [4]. Further, the IC50 (in the assay with glioblastoma U87 cells; in assay [5]; in assay [6]) was above 50 µM in each case.

One may read the MIC as the smallest concentration in the dilution series that meets the test's criterion for growth inhibition. By IC50 is commonly meant the midpoint of a concentration-inhibition curve. A low value points to greater potency in that assay.

Values taken from publication PMC12150283, “Synthesis of new Ag(I) and Cd(II) hydrozanomide-based complexes with antibacterial and anticancer properties” (RSC Advances, 2025).
